# Reference: patent US20050171215A1, “Germicidal compositions containing halogenated phthalaldehyes, and methods of using such compositions for disinfection or sterilization” (Ethicon, Inc., priority 2004, published 2005)
# Read-outs that look alike come from different tables or passages of the source.
# How the values were obtained:
# [1] = tested on: Mycobacterium terrae bacteria; test: bacterial suspension test; assay type: cell-based; conditions: for Germicidal Efficacy: summary Table 14
# Protocol: In Examples 1 to 3, which follow, several germicidal solutions containing either the 4-fluoro-, 4-chloro-, or 4-bromo-phthalaldehyde compound were tested to determine their effectiveness in killing at least 1×10^6/mL of Mycobacterium terrae bacteria using a bacterial suspension test. The bacterial suspension test that was employed is described in Section VII.
# The solutions were prepared by adding the appropriate amounts of the germicidal compounds to an aqueous solution. Unless otherwise mentioned all concentrations reported herein are expressed in (w/v)%. The pH of the solution was not adjusted. The tests were conducted at a temperature of about 20° C. (room temperature). The results are presented in terms of log reductions/mL. It is understood that these examples, as well as the other examples herein, are to be construed as merely illustrative, and not limiting.
# In this test method, 9 mL of the germicide to be tested is placed in a tube, put into a water bath and allowed to come to the desired temperature. One mL of the test organism, including at least 7 logs/mL of Mycobacterium terrae bacteria, is added to the 9 mL of the germicide to be tested. […] It will be appreciated by those skilled in the art that other concentrations may be utilized by proper dilution and accounting.
# At appropriate time intervals, 1 mL aliquots of the germicide-cell suspension were removed and added directly into 9 mL of a 1% glycine solution (neutralizer) and mixed thoroughly to neutralize the germicide in the transferred suspension. The glycine solution was prepared from solid glycine, which is available from VWR Scientific Products, among others. The above-identified 10 mL neutralized solution was then poured through a membrane filter having an average pore size of 0.45 micrometers. The filter was then rinsed twice with at least 150 mL of the 1% glycine solution per rinse. The filter was then placed on an agar plate and incubated for twenty-one days at 37° C. In the above procedure, if dilution was needed, then the 1 mL germicidal-cell suspension was diluted in 99 mL of a phosphate buffer before addition to the 9 mL of the 1% glycine solution. The phosphate buffer was DiLu-LoK™ Butterfields Phosphate Buffer, available from Hardy Diagnostics, of Santa Maria, Calif.
# The surviving colonies are then counted. The data is plotted as S/So vs. time. So is the initial count of the bacteria in the above 10 mL solution which is at least 10^6 bacteria/mL, and S is the surviving bacteria from the above filter on the agar plate. The results of the experiments were presented in terms of log reductions. Log reduction is the difference between log(So) and log(S). As one example, if log(So)=6.2, and if there were 100 survivors, then the log(S)=2, and the log reduction was reported as 4.2.
# solubility in water = assay type: physicochemical
compound,measurement,setting,value
O=CC(C=O)c1ccccc1 [phenyl-propanedial],Log Reductions/mL,"[1]; 0.4%, 20° C., 60 min",Total Kill
same,Log Reductions/mL,"[1]; 0.44%, 20° C., 60 min",Total Kill
same,Log Reductions/mL,"[1]; 0.66%, 20° C., 15 min",Total Kill
same,Log Reductions/mL,"[1]; 0.7%, 20° C., 15 min",Total Kill
same,Log Reductions/mL,"[1]; (˜1%), 20° C., 5 min",4.5 log reductions/mL
same,log reduction at 0.66 %,"[1]; Mycolicibacter terrae, 5 min, 0.66%, 20° C., 5 min, read-out: Log Reductions/mL",< 2.5
same,log reduction at 1 %,"[1]; Mycolicibacter terrae, 5 min, ˜1%, 20° C., 5 min (Table 15), read-out: Log Reductions/mL",4.5
same,log reduction at 0.66 %,"[1]; Mycolicibacter terrae, 10 min, 0.66%, 20° C., 10 min, read-out: Log Reductions/mL",2.5
same,log reduction at 0.7 %,"[1]; Mycolicibacter terrae, 10 min, 0.7%, 20° C., 10 min, read-out: Log Reductions/mL",2.5
same,log reduction at 0.3 %,"[1]; Mycolicibacter terrae, 0.5 h, 0.3%, 20° C., 30 min, read-out: Log Reductions/mL",2.1
same,log reduction at 0.33 %,"[1]; Mycolicibacter terrae, 0.5 h, 0.33%, 20° C., 30 min, read-out: Log Reductions/mL",2.1
same,log reduction at 0.4 %,"[1]; Mycolicibacter terrae, 0.5 h, 0.4%, 20° C., 30 min, read-out: Log Reductions/mL",2.5
same,log reduction at 0.44 %,"[1]; Mycolicibacter terrae, 0.5 h, 0.44%, 20° C., 30 min, read-out: Log Reductions/mL",2.5
same,log reduction at 0.2 %,"[1]; Mycolicibacter terrae, 1 h, 0.2%, 20° C., 60 min, read-out: Log Reductions/mL",2.1
same,log reduction at 0.22 %,"[1]; Mycolicibacter terrae, 1 h, 0.22%, 20° C., 60 min, read-out: Log Reductions/mL",2.1
same,concentration effective to achieve a total kill,"[1]; within 15 minutes, 20° C.",0.4 to 0.7%
same,concentration effective to achieve a total kill of the bacteria,"[1]; within 60 minutes, 20° C.",0.3 to 0.4%
same,solubility in water,solubility in water,about 1%
"O=Cc1cccc(C=O)c1 [IPA, isophthalaldehyde, reference compound]",Log Reductions/mL,"[1]; 0.3%, dissolved in 20% isopropanol, 20° C., 5 min (Table 11)",Confluent
same,Log Reductions/mL,"[1]; 0.3%, dissolved in 20% isopropanol, 20° C., 5 min (Table 15)",Confluent
same,Germicidal Efficacy,[1],Poor
4-pyridinyl-propanedial,Log Reductions/mL,"[1]; Saturated (˜2.3% w/v), 5 min, 20° C.",4.0 log reductions/mL
O=CC(C=O)c1cccc(C(=O)O)c1[N+](=O)[O-] [3-(1-formyl-2-oxoethyl)-2-nitro-benzoic acid],log reduction at 2.1 %,"[1]; Mycolicibacter terrae, 5 min, Saturated (˜2.1% w/v), 5 min, 20° C., read-out: Log Reductions/mL",4
O=Cc1ccc(Br)cc1C=O [4-bromo-phthalaldehyde],Log Reductions/mL,"[1]; 0.1%, 20° C., 30 minutes exposure",Total Kill
same,time to achieve a total kill of the bacteria,"[1]; about 0.1%, 20° C.",10 to 30 min
"O=CC(c1ccccc1)C(O)S(=O)(=O)[O-].[Na+] (stereo not shown) [1-hydroxy-3-oxo-2-phenyl-propane-1-sulfonic acid, sodium salt]",Log Reductions/mL,"[1]; 0.6%, 20° C., 60 min",Total Kill
same,log reduction at 0.6 %,"[1]; Mycolicibacter terrae, 5 min, 0.6%, 20° C., 5 min, read-out: Log Reductions/mL",2.1
same,log reduction at 0.6 %,"[1]; Mycolicibacter terrae, 20 min, 0.6%, 20° C., 20 min, read-out: Log Reductions/mL",2.5
same,log reduction at 0.6 %,"[1]; Mycolicibacter terrae, 25 min, 0.6%, 20° C., 25 min, read-out: Log Reductions/mL",2.9
O=Cc1ccc(F)cc1C=O [4-fluoro-phthalaldehyde],Log Reductions/mL,"[1]; 0.25%, 20° C., 60 minutes exposure",Total Kill
same,time to achieve a total kill of the bacteria,"[1]; about 0.25%, 20° C.",30 to 60 min
"O=Cc1ccccc1C=O [OPA, phthalaldehyde, reference compound]",log reduction at 0.14 %,"[1]; Mycolicibacter terrae, 5 min, 0.14%, 20° C., 5 min, read-out: Log Reductions/mL",4.8
same,log reduction at 0.28 %,"[1]; Mycolicibacter terrae, 5 min, 0.28%, 20° C., 5 min, read-out: Log Reductions/mL",5.5
same,Germicidal Efficacy,[1],Good
same,solubility in water,solubility in water,about 5 % by weight
"O=Cc1ccccc1C(O)S(=O)(=O)[O-].[Na+] (stereo not shown) [(2-formyl-phenyl)-hydroxy-methane sulfonic acid, sodium salt]",Log Reductions/mL,"[1]; 9.1%, 20° C., 5 min",Confluent
"O=Cc1ccc(C=O)cc1 [TPA, terephthalaldehyde, reference compound]",Log Reductions/mL,"[1]; 0.2%, dissolved in 20% isopropanol, 20° C., 5 min",Confluent
same,Germicidal Efficacy,[1],Poor
O=Cc1ccc(Cl)cc1C=O [4-chloro-phthalaldehyde],Log Reductions/mL,"[1]; 2.7 w/v % (in 20% isopropanol), 20° C., 5 min",Total Kill
same,concentration effective to achieve a total kill of all bacteria,"[1]; in five minutes, 20° C.",0.2 to 2.7%
